Measured values reported in PubChem BioAssay AID2060905 (Molecular Pharmacology Branch, DTP, NCI, 2025).

System: 282377-053-R-J1-PDC complex spheroid viability
Experiment: Anticancer human tumor 282377-053-R-J1-PDC patient-derived colon adenocarcinoma cell line growth inhibition [RAS]
Settings: for IC50: curve of first compound; for viability, T/C: stronger effect = lower value
Description: RAS pathway inhibitors in Combinations in Complex Spheroids
A high-throughput screen of multi-cell type tumor spheroids was designed to identify active combinations of RAS pathway inhibitors and targeted small molecules. Complex spheroids include a stromal component modeled by human endothelial cells (HUVEC) and fibroblasts modeled by human mesenchymal stem cells (MSCs). The concentration ranges selected for each drug and investigational agent were based upon clinically achievable concentrations if the clinical Cmax of the agent was known.
Compounds. The drugs and investigational agents: abemaciclib (NSC768073), cobimetinib (NSC768068), divarasib (GDC6063, NSC841802), docetaxel (NSC628503), GDC-1971 (RLY-1971, NSC841576), gemcitabine (NSC613327), inavolisib (NSC800729), ipatasertib (NSC767898), KB-0742 (NSC834161), MRTX-1133 (NSC836407), osimertinib (NSC779217), RMC-4630 (NSC839698), RMC-6236 (NSC851965), RMC-6291 (NSC852671), Ro-3306 (NSC812927), sapanisertib (NSC764658), SN-38 (NSC673596), staurosporine (NSC755774), SY5609 (NSC837396), and tovorafenib (DAY101, NSC766906), were obtained from the National Cancer Institute (NCI) Developmental Therapeutics Program Chemical Repository. The FDA-approved anticancer drug set is available from the NCI Developmental Therapeutics Program. […] The stock solutions were prepared in dimethyl sulfoxide (DMSO, Sigma-Aldrich, St. Louis, MO, cat. D2650) at 800-fold the tested concentration and stored at -70 degrees C prior to their use. All drugs and investigational agents were tested over a range starting from a high concentration at or near the clinical Cmax and decreasing in half-log increments. If the clinical Cmax for an agent had not been determined, the highest concentration tested was 10 microM.
Cell Culture. All cells were maintained in an incubator at 37 degrees C and 5% CO2 with 95% humidity. The PDC lines were cultured according to standard operating procedures established by the NCI PDMR. All PDCs were thawed and cultured in Matrigel-coated flasks prepared with a working solution of 1X Ham's F-12 nutrient mix, without supplementation (Invitrogen, Waltham, MA, cat. 11765054), 100 U/mL penicillin-streptomycin (Invitrogen, cat. 15140122), and 2.5% Matrigel (Corning Inc., Corning, NY, cat. 354248) for the first three passages. The 362531-283-R-J2-PDC and 782815-120-R-J1-PDC lines were cultured in 6C/Colon 1B media, which includes advanced DMEM/F-12 (Thermo Fisher Scientific, cat. 12634028), 10 mM HEPES (Thermo Fisher Scientific, cat. 15630080), 1X GlutaMAX supplement (Thermo Fisher Scientific, cat. 35050061), 0.1 mg/mL primocin (InvivoGen, San Diego, CA, cat. ant-pm-2), 10% defined fetal bovine serum, heat inactivated (HyClone Laboratories Inc., Logan, UT, cat. SH30070.03HI), 50% L-WRN conditioned media (ATCC, cat. CRL-3276), 1.25 mM N-Acetyl-L-cysteine (Sigma-Aldrich, cat. A9165), 10 mM nicotinamide (Sigma-Aldrich, cat. N0636), 1X B-27 supplement (Thermo Fisher Scientific, cat. 17504044), 1X N-2 supplement (Thermo Fisher Scientific, cat. 17502048), 50 ng/mL human EGF (Thermo Fisher Scientific, cat. PHG0311), and 10 microM Y-27632 dihydrochloride (Tocris Bioscience, cat. 1254). The K12877-001-R-J1-PDC line was cultured in 6I media, which includes all 6C/Colon 1B media plus 10 ng/mL human FGF-10 (PeproTech, cat. 100-26), 1 ng/mL human FGF-2 (PeproTech, cat. 100-18B), 1 µM prostaglandin E2 (Tocris Bioscience, cat. 2296), […] hydrocortisone (Sigma-Aldrich, cat. H4001), and […] bovine insulin (Sigma-Aldrich, cat. I6634). The K86415-001-R-J1-PDC line was cultured in 6D media, which includes all 6C/Colon 1B media components minus the L-WRN conditioned media. The 485176-168-R4-J1-PDC was cultured in PANC media, which includes all 6C/Colon 1B media plus 100 ng/mL human FGF-10 (PeproTech, cat. 100-26), 500 nM SB-431542 (Selleckchem, cat. S1067), and 10 nM gastrin (Tocris Bioscience, cat. 3006). […]

[1] = second compound 0.0316 µM, first compound 0.0316 µM
[2] = second compound 0.0316 µM, first compound 0.1 µM
[3] = second compound 0.0316 µM, first compound 0.316 µM
[4] = second compound 0.0316 µM, first compound 1 µM
[5] = second compound 0.1 µM, first compound 0.0316 µM
[6] = second compound 0.1 µM, first compound 0.1 µM
[7] = second compound 0.1 µM, first compound 0.316 µM
[8] = second compound 0.1 µM, first compound 1 µM
[9] = second compound 0.316 µM, first compound 0.0316 µM
[10] = second compound 0.316 µM, first compound 0.1 µM
[11] = second compound 0.316 µM, first compound 0.316 µM
[12] = second compound 0.316 µM, first compound 1 µM
[13] = second compound 1 µM, first compound 0.0316 µM
[14] = second compound 1 µM, first compound 0.1 µM
[15] = second compound 1 µM, first compound 0.316 µM
[16] = second compound 1 µM, first compound 1 µM
[17] = second compound 3.16 µM, first compound 0.0316 µM
[18] = second compound 3.16 µM, first compound 0.1 µM
[19] = second compound 3.16 µM, first compound 0.316 µM
[20] = second compound 3.16 µM, first compound 1 µM
[21] = second compound 10 µM, first compound 0.0316 µM
[22] = second compound 10 µM, first compound 0.1 µM
[23] = second compound 10 µM, first compound 0.316 µM
[24] = second compound 10 µM, first compound 1 µM
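Further: spheroids exposed to agents for seven days before readout.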
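Wherever viability, T/C is given: luminescence viability as percent of DMSO vehicle control wells.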

**Q.** Which IC50 (second compound 0.0316 µM) does the source give for `NC1c2ccccc2OC12CCN(c1cnc3c(N4CCCc5ncccc54)n[nH]c3n1)CC2` (centres undefined) + C#Cc1c(F)ccc2cc(O)cc(-c3ncc4c(N5CC6CCC(C5)N6)nc(OCC56CCCN5CC(F)C6)nc4c3F)c12 here?
**A.** Its IC50 is greater than 10000 nM.

**Q.** What about the IC50 (second compound 0.1 µM) of the same molecule?
**A.** Its IC50 is greater than 10000 nM.

**Q.** And the IC50 (second compound 0.316 µM)?
**A.** The IC50 was greater than 10000 nM.

**Q.** What about the IC50 (second compound 1 µM) of the same molecule?
**A.** The IC50 was greater than 10000 nM.

**Q.** What about the IC50 (second compound 3.16 µM) of the same molecule?
**A.** Its IC50 is greater than 10000 nM.

**Q.** What about the IC50 (second compound 10 µM) of the same molecule?
**A.** Its IC50 is greater than 10000 nM.

**Q.** And the viability, T/C [1]?
**A.** The viability, T/C was 92.2%.

**Q.** And the viability, T/C [2]?
**A.** The viability, T/C was 91.7%.

**Q.** What about the viability, T/C [3] of the same molecule?
**A.** The viability, T/C was 111%.

**Q.** What about the viability, T/C [4] of the same molecule?
**A.** The viability, T/C was 104%.

**Q.** What about the viability, T/C (second compound 0.0316 µM, first compound 3.16 µM) of the same molecule?
**A.** Its viability, T/C is 88.3%.

**Q.** What about the viability, T/C (second compound 0.0316 µM, first compound 10 µM) of the same molecule?
**A.** Its viability, T/C is 67.5%.

**Q.** What about the viability, T/C [5] of the same molecule?
**A.** The viability, T/C was 90.7%.

**Q.** What about the viability, T/C [6] of the same molecule?
**A.** The viability, T/C was 85.5%.

**Q.** And the viability, T/C [7]?
**A.** The viability, T/C was 99.2%.

**Q.** And the viability, T/C [8]?
**A.** The viability, T/C was 71.9%.

**Q.** And the viability, T/C (second compound 0.1 µM, first compound 3.16 µM)?
**A.** The viability, T/C was 110%.

**Q.** What about the viability, T/C (second compound 0.1 µM, first compound 10 µM) of the same molecule?
**A.** The viability, T/C was 73%.

**Q.** And the viability, T/C [9]?
**A.** Its viability, T/C is 105%.

**Q.** And the viability, T/C [10]?
**A.** The viability, T/C was 87.4%.

**Q.** What about the viability, T/C [11] of the same molecule?
**A.** Its viability, T/C is 78.4%.

**Q.** And the viability, T/C [12]?
**A.** Its viability, T/C is 95.6%.

**Q.** And the viability, T/C (second compound 0.316 µM, first compound 3.16 µM)?
**A.** The viability, T/C was 94.8%.

**Q.** And the viability, T/C (second compound 0.316 µM, first compound 10 µM)?
**A.** Its viability, T/C is 78.7%.

**Q.** What about the viability, T/C [13] of the same molecule?
**A.** The viability, T/C was 83%.

**Q.** What about the viability, T/C [14] of the same molecule?
**A.** Its viability, T/C is 88.1%.

**Q.** And the viability, T/C [15]?
**A.** Its viability, T/C is 106%.

**Q.** What about the viability, T/C [16] of the same molecule?
**A.** The viability, T/C was 92.5%.

**Q.** And the viability, T/C (second compound 1 µM, first compound 3.16 µM)?
**A.** The viability, T/C was 85.1%.

**Q.** What about the viability, T/C (second compound 1 µM, first compound 10 µM) of the same molecule?
**A.** The viability, T/C was 83%.

**Q.** And the viability, T/C [17]?
**A.** The viability, T/C was 90.4%.

**Q.** What about the viability, T/C [18] of the same molecule?
**A.** Its viability, T/C is 96%.

**Q.** What about the viability, T/C [19] of the same molecule?
**A.** The viability, T/C was 99.6%.

**Q.** What about the viability, T/C [20] of the same molecule?
**A.** The viability, T/C was 86.5%.

**Q.** What about the viability, T/C (second compound 3.16 µM, first compound 3.16 µM) of the same molecule?
**A.** The viability, T/C was 90.4%.

**Q.** And the viability, T/C (second compound 3.16 µM, first compound 10 µM)?
**A.** Its viability, T/C is 77.1%.

**Q.** And the viability, T/C [21]?
**A.** The viability, T/C was 115%.

**Q.** And the viability, T/C [22]?
**A.** The viability, T/C was 105%.

**Q.** And the viability, T/C [23]?
**A.** Its viability, T/C is 108%.

**Q.** What about the viability, T/C [24] of the same molecule?
**A.** The viability, T/C was 84.7%.

**Q.** And the viability, T/C (second compound 10 µM, first compound 3.16 µM)?
**A.** Its viability, T/C is 109%.

**Q.** What about the viability, T/C (second compound 10 µM, first compound 10 µM) of the same molecule?
**A.** The viability, T/C was 81.6%.

**Q.** What does the source list for `Nc1ccn(C2OC(CO)C(O)C2(F)F)c(=O)n1` (centres undefined) + C#Cc1c(F)ccc2cc(O)cc(-c3ncc4c(N5CC6CCC(C5)N6)nc(OCC56CCCN5CC(F)C6)nc4c3F)c12?
**A.** IC50 (second compound 0.0316 µM): 633 nM; IC50 (second compound 0.1 µM): 251 nM; IC50 (second compound 0.316 µM): 440 nM; IC50 (second compound 1 µM): 258 nM; IC50 (second compound 3.16 µM): 544 nM; IC50 (second compound 10 µM): > 1000 nM; viability, T/C (second compound 0.0316 µM, first compound 0.00316 µM): 133%; viability, T/C (second compound 0.0316 µM, first compound 0.01 µM): 117%; viability, T/C [1]: 85.4%; viability, T/C [2]: 79.5%; viability, T/C [3]: 59%; viability, T/C [4]: 43.1%; viability, T/C (second compound 0.1 µM, first compound 0.00316 µM): 96%; viability, T/C (second compound 0.1 µM, first compound 0.01 µM): 89.7%; viability, T/C [5]: 101%; viability, T/C [6]: 76.8%; viability, T/C [7]: 44.6%; viability, T/C [8]: 37.9%; viability, T/C (second compound 0.316 µM, first compound 0.00316 µM): 115%; viability, T/C (second compound 0.316 µM, first compound 0.01 µM): 92.5%; viability, T/C [9]: 99.4%; viability, T/C [10]: 77%; viability, T/C [11]: 51.1%; viability, T/C [12]: 42.3%; viability, T/C (second compound 1 µM, first compound 0.00316 µM): 100%; viability, T/C (second compound 1 µM, first compound 0.01 µM): 101%; viability, T/C [13]: 107%; viability, T/C [14]: 69.6%; viability, T/C [15]: 51.3%; viability, T/C [16]: 40.2%; viability, T/C (second compound 3.16 µM, first compound 0.00316 µM): 89.8%; viability, T/C (second compound 3.16 µM, first compound 0.01 µM): 86%; viability, T/C [17]: 89.1%; viability, T/C [18]: 73.1%; viability, T/C [19]: 56.6%; viability, T/C [20]: 43.3%; viability, T/C (second compound 10 µM, first compound 0.00316 µM): 99.2%; viability, T/C (second compound 10 µM, first compound 0.01 µM): 99.3%; viability, T/C [21]: 92.8%; viability, T/C [22]: 69.8%; viability, T/C [23]: 62.5%; viability, T/C [24]: 54.5%
